Measurements from patent publication US20220241316A1, “25-HYDROXYCHOLESTEROL (25HC), CRYAB AGGREGATION INHIBITOR, IS A NOVEL SENOLYTIC” (Buck Institute for Research on Aging, priority 2019, published 2022).
Entries after “also recorded” stand apart in the source; their conditions may differ.

Tests used:
senescent cells = assay: Evaluation of senolytic effects of 25HC, oxysterols and 25HC analogs in cell culture; assay type: cell-based; settings: cell type not stated
From the text: Genetic knockdown of this gene kills senescent cells.
There are some commercially available analogs of 25HC such as oxysterols (Griffiths et al. (2019) Biochem Soc Trans., 47: 517-526).

CRYAB protein [1] = molecular target: T1, CRYAB protein (Homo sapiens, UniProt P02511); assay: Inhibition of CRYAB protein aggregation; settings: stated with reference to Example 1; no aggregation test described
T1 sequence (P02511 1-175): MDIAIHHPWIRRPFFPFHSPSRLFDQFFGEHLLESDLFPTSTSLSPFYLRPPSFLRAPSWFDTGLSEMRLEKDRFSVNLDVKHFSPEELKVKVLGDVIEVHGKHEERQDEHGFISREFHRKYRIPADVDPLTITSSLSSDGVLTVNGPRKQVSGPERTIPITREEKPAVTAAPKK

[2] = test system: senescent human fetal lung fibroblast (IMR-90); assay: Cell viability assay (Cell Counting Kit-8) on NS and SEN IMR-90 cells; assay type: cell-based; settings: treatment started immediately after removing DMSO/250 nM Doxo; 72 hrs; normalized to DMSO
Protocol: Panel A) Timeline for DMSO/250 nM Doxo treatment and early-time point timeline for 24(S)-HC and 27HC treatment on NS and SEN cells. 24(S)HC and 27HC treatment were started immediately after removing DMSO/Doxo. Panel B) and C) Cell viability assay were performed on NS and SEN cells treated with different concentrations of 24(S)HC and 27HC, respectively. 24(S)HC and 27HC treatment were done for 72 hrs. The cell viability was analyzed by Cell Counting Kit-8 according to the manufactures' protocol using Spectra Max 190 (Molecular Devices). The value was normalized to that of DMSO. (Mean+/−SE, n=3, *p<0.05, **p<0.01 and ***p<0.001 by student's t-test).

senescent mDFs = assay: Cell viability assay on NS and SEN mDFs treated with 25HC; assay type: cell-based, mouse; settings: treatment 72 hrs
Protocol: (§1) Panel A) Timeline for DMSO/Doxo treatment and early-time point timeline for 25HC treatment on NS and SEN cells. 25HC treatment was started immediately after removing DMSO/Doxo. Panel B) Cell viability assay was performed on NS and SEN cells treated with different concentrations of 25HC. 25HC treatment was done for 72 hrs. (Mean+/−SD, n=3, *p<0.05, **p<0.01 vs 0 uM by student's t-test).
as §1, with “late-time” for “early-time”, “7 days” for “immediately”, “n=6, **p<0.01, ***p<0.001, **** p<0.0001,” for “n=3, *p<0.05, **p<0.01”

CRYAB protein [3] = molecular target: T1, CRYAB protein; settings: from Makley et al. (2015) / Xu et al. (2017); cited from earlier work
senescent FAPs = assay: Cell viability assay on NS and SEN FAPs treated with 25HC; assay type: cell-based, mouse; settings: 25HC started immediately after removing DMSO/Doxo (early-time point); treatment total 5 days; normalized to 0 uM
Protocol: as §1, with “total 5 days. The value was normalized to that of 0 uM. The average value of 0 μM is expressed as 100% (Mean+/−SE,” for “72 hrs. (Mean+/−SD,”, “n=3,” for “n=3, *p<0.05,”, “and ***p<0.001” for “vs 0 uM”, “t-test vs NS).” for “t-test).”

p16INK4a mRNA [4] = assay: qPCR of p16INK4a mRNA in Doxo treated FAPs; assay type: cell-based, mouse; settings: 250 nM Doxo for 24 hours; normalized to β-actin, vs DMSO
Protocol: As shown, FAPs undergo senescence upon 250 nM of Doxo treatment for 24 hours (Day 0). The mRNA was extracted from DMSO treated NS or Doxo treated SEN FAPs at indicated time points and quantified by qPCR. The amount of mRNA was normalized to the level of β-actin. The graphs show the relative levels of p16INK4a mRNA for DMSO and Doxo treated samples. The average value of DMSO is expressed as 1 (Mean+/−SE, n=3, *p<0.05 by Dunnett's multiple comparisons test vs DMSO).

CRYAB mRNA [5] = assay: qPCR of CRYAB mRNA in Doxo treated FAPs; assay type: cell-based, mouse; settings: 250 nM doxorubicin 24 hrs; normalized to β-actin, vs DMSO
Protocol: The cells were treated with 250 nM doxorubicin and incubated for 24 hrs (Day 0). The mRNA was extracted from DMSO treated NS or Doxo treated SEN FAPs at the indicated time points and quantified by qPCR. The amount of mRNA was normalized to the level of β-actin mRNA. The average value of DMSO is expressed as 1 (Mean+/−SE, n=3, **p<0.01 and ***p<0.001 by Dunnett's multiple comparisons test vs DMSO).

p16INK4a mRNA [6] = assay: qPCR of p16INK4a mRNA in Doxo treated mDFs; assay type: cell-based, mouse; settings: 250 nM Doxo for 24 hours; day 1, 5, 14; normalized to β-actin, vs DMSO
Protocol: (§2) As shown, mDFs undergo senescence upon 250 nM of Doxo treatment for 24 hours (Day 0). Real-time quantitative PCR (qPCR) was performed on RNA samples isolated from DMSO treated NS (Non-Senescent) mDF cells or Doxo treated SEN (Senescent) mDF cells at day 1, 5, and 14 after Doxo treatment. The amount of mRNA was normalized to the level of β-actin (see, e.g., Demaria et al. (2017) Cancer Discovery, 2: 165-176; and references cited therein). Relative levels of p16INK4a mRNA for DMSO and Doxo treated mDFs was measured. The average value of DMSO is expressed as 1. (Mean+/−SE, n=4, **p<0.01, ****p<0.0001 by Dunnett's multiple comparisons test vs DMSO).

CRYAB mRNA [7] = assay: qPCR of CRYAB mRNA in Doxo treated mDFs; assay type: cell-based, mouse; settings: Doxo treated SEN mDFs day 1, 5, 14; normalized to β-actin, vs DMSO
Protocol: as §2, with “Real-time” for “As shown, mDFs undergo senescence upon 250 nM of Doxo treatment for 24 hours (Day 0). Real-time”, “NS” for “NS (Non-Senescent)”, “SEN” for “SEN (Senescent)”, “CRYAB” for “p16INK4a”, “*p<0.05, ***p<0.001” for “**p<0.01, ****p<0.0001”

| Structure (SMILES) | Senolytic effect (senescent cells) | Inhibition of CRYAB protein aggregation (as asserted in the description) (CRYAB protein [1]) | also measured |
| --- | --- | --- | --- |
| C[C@@H](CCCC(C)(O)c1ccccc1)C1CCC2C3CC=C4C[C@H](O)CC[C@@]4(C)C3CC[C@]21C (relative stereo) [rel-(3R,10S,13S)-17-[(2S)-6-hydroxy-6-phenylheptan-2-yl]-10,13-dimethyl-2,3,4,7,8,9,10,11,12,13,14,15,16,17-tetradecahydro-1H-cyclopenta[a]phenanthren-3-ol] | novel senolytics | effective inhibitors of CRYAB protein aggregation |  |
| C[C@H](CCCC(C)(C)O)[C@H]1CC[C@H]2[C@@H]3[C@H](O)C=C4C[C@@H](O)CC[C@]4(C)[C@H]3CC[C@]12C [7α,25-Dihydroxycholesterol] | novel senolytics | effective inhibitors of CRYAB protein aggregation |  |
| CC(C)CCC[C@@H](C)[C@H]1CC[C@H]2[C@@H]3[C@H](O)C=C4C[C@@H](O)CC[C@]4(C)[C@H]3CC[C@]12C [7αHC, 7α-Hydroxycholesterol] | novel senolytics | effective inhibitors of CRYAB protein aggregation |  |
| CC(C)CCC[C@@H](C)[C@H]1CC[C@H]2[C@@H]3[C@@H](O)C=C4C[C@@H](O)CC[C@]4(C)[C@H]3CC[C@]12C [7βHC, 7β-Hydroxycholesterol] | novel senolytics | effective inhibitors of CRYAB protein aggregation |  |
| CC(C)CC[C@@H](O)[C@@H](C)[C@H]1CC[C@H]2[C@@H]3CC=C4C[C@@H](O)CC[C@]4(C)[C@H]3CC[C@]12C [22(R)HC, 22(R)-Hydroxycholesterol] | novel senolytics | effective inhibitors of CRYAB protein aggregation |  |
| CC(C)[C@@H](O)CC[C@@H](C)[C@H]1CC[C@H]2[C@@H]3CC=C4C[C@@H](O)CC[C@]4(C)[C@H]3CC[C@]12C [24(S)HC, 24(S)-Hydroxycholesterol] | novel senolytics | effective inhibitor of CRYAB protein aggregation | Cell viability of NS and SEN IMR-90 cells, early-time point [2]: specifically kill senescent human fetal lung fibroblast; also recorded: specifically kill senescent IMR-90 cells |
| C[C@H](CCCC(C)(C)O)[C@H]1CC[C@H]2[C@@H]3CC=C4C[C@@H](O)CC[C@]4(C)[C@H]3CC[C@]12C [25HC, 25-hydroxycholesterol] | novel senolytic agent | effective inhibitor of CRYAB protein aggregation | Cell viability of NS and SEN mDFs, late-time point (senescent mDFs; 25HC started 7 days after removing DMSO/Doxo): specifically kills senescent mDFs at late-timepoint; Cell viability of NS and SEN mDFs, early-time point (senescent mDFs; 25HC started immediately after removing DMSO/Doxo): specifically kills senescent mDFs at early-timepoint; Inhibition of CRYAB / CRYAB protein aggregation (literature) (CRYAB protein [3]): effective inhibitor of CRYAB; Cell viability of NS and SEN FAPs (senescent FAPs): specifically kills senescent FAPs |
| CC(=O)CCC[C@@H](C)[C@H]1CC[C@H]2[C@@H]3CC=C4C[C@@H](O)CC[C@]4(C)[C@H]3CC[C@]12C [27-Nor-25-ketocholesterol] | novel senolytics | effective inhibitors of CRYAB protein aggregation |  |
| C[C@@H](CO)CCC[C@@H](C)[C@H]1CC[C@H]2[C@@H]3CC=C4C[C@@H](O)CC[C@]4(C)[C@H]3CC[C@]12C [27HC, 27-Hydroxycholesterol] | novel senolytics | effective inhibitor of CRYAB protein aggregation | Cell viability of NS and SEN IMR-90 cells, early-time point [2]: specifically kill senescent human fetal lung fibroblast; also recorded: specifically kill senescent IMR-90 cells |
| CC(CCCN(C)C)C1CCC2C3CC=C4C[C@@H](O)CC[C@]4(C)C3CC[C@]12C (stereo partly drawn) [(3S,10R,13R)-17-(5-(dimethylamino)pentan-2-yl)-10,13-dimethyl-2,3,4,7,8,9,10,11,12,13,14,15,16,17-tetradecahydro-1H-cyclopenta[a]phenanthren-3-ol] | novel senolytics | effective inhibitors of CRYAB protein aggregation |  |
| C[C@H](CCC(=O)O)[C@H]1CCC2[C@@H]3CC=C4C[C@H](O)CC[C@]4(C)C3CC[C@@]21C (stereo partly drawn) [(3alpha,9xi,14xi)-3-hydroxychol-5-en-24-oic acid] | novel senolytics | effective inhibitors of CRYAB protein aggregation |  |
| C=C1CC[C@@H](O)CC1=C/C=C1\CCC[C@]2(C)[C@@H]([C@H](C)CCCC(C)(C)O)CC[C@@H]12 [Calcifediol 25-Hydroxyvitamin D3, reference compound] | novel senolytics | effective inhibitors of CRYAB protein aggregation |  |
| COc1cccc2c1C(=O)c1c(O)c3c(c(O)c1C2=O)C[C@@](O)(C(=O)CO)C[C@@H]3O[C@H]1C[C@H](N)[C@H](O)[C@H](C)O1 [Doxo, doxorubicin] |  |  | Relative level of p16INK4a mRNA in FAPs (p16INK4a mRNA [4]): induced senescence; Relative level of CRYAB mRNA in FAPs (CRYAB mRNA [5]): significantly increased; Relative level of p16INK4a mRNA in mDFs (p16INK4a mRNA [6]): induces senescence marker, p16INK4a; Relative level of CRYAB mRNA in mDFs (CRYAB mRNA [7]): upregulated CRYAB |
